From US20240226057A1, “NEW USE OF MONENSIN” (MAST PHARMA AB, priority 2021, published 2024)
“Also recorded” adds a separate entry of the source. Where two headings read alike, the source gives them in different places.

Experiments:
[1] = tested on: Bone marrow-derived mast cells (BMMCs); test: Trypan blue positivity of treated mast cells; format: cell-based, mouse
Caspase 3 & 7 = Caspase 3 & 7 activation in mast cells
[2] = tested on: Bone marrow-derived mast cells (BMMCs); test: BMMC viability, screening and kinetic analysis (Presto Blue / resazurin reduction)
[3] = tested on: human fibroblast cells (HFL-1); test: Cytotoxicity against human fibroblast cells (PrestoBlue)
[4] = tested on: mouse bone-marrow-derived mast cells (BMMCs); test: Annexin V/DRAQ7 cell death assessment in BMMCs; format: cell-based
Procedure: (§1) To assess cell death, cells were stained with Annexin V and either DRAQ7™ or Via-Probe™ Red Nucleic Acid Stain and analyzed by flow cytometry. To probe pH in acidic organelles, cells were incubated with LysoSensor Blue DND-167, followed by flow cytometry. The relative intracellular pH changes were assessed using the cell-permeable pH-sensitive fluorescent indicator (BCFL-AM). Intracellular calcium changes were assessed using Fluo-4/AM.
To analyze the mechanism by which monensin acts on mast cells, Annexin V/DRAQ7 staining was first adopted to assess the type of cell death induced by monensin, the gating is shown in FIG. 2A. […] Necrotic/late apoptotic (Annexin V^+/DRAQ7^+) cells were also seen, but to a lesser extent (right panel).
BMMCs were treated with 1 μM monensin for 12 and 24 h, followed by Annexin V/DRAQ7 staining to measure cell death. MCs were gated into cells having high and low maturity, as assessed by SSC analysis for granularity (A). The right panels depict the quantification of apoptotic (Annexin V^+/DRAQ7^−) and necrotic (Annexin V^+/DRAQ7^+) cell death in the respective populations (n=3). (B) BMMCs (0.5×10^6 cells) were developed from WT (FIG. 4B) or serglycin^−/− (SG^−/−) mice (data not shown) and were treated with monensin 0-10 μM for 24 h, followed by cell death assessment (Annexin V/DRAQ7 staining). BMMCs (C; 0.5×10^6 cells) or human skin MCs (0.1×10^6 cells; D) were treated with monensin or bafilomycin A 0-10 μM for 30 min, followed by staining with LysoSensor Blue DND-167 (a lysosome probe sensitive to decreased pH) (n=4). BMMCs (0.5×10^6 cells) were treated with either monensin or bafilomycin A (20 nM) alone or in combination (E), followed by measurement of cell death (Annexin V/DRAQ7 staining). (F) BMMCs were treated with monensin or bafilomycin A for 4 and 24 h, followed by assessment of cytosolic pH (n=2). […] To further assess the impact of the secretory granules on monensin-induced cell death, it was evaluated whether the absence of serglycin, a granule-restricted proteoglycan, affects the response to monensin. Both WT and serglycin^−/− BMMCs were sensitive to cell death induced by monensin.

BMMCs [5] = test: Granule acidity, LysoSensor Blue DND-167 staining of BMMCs; format: cell-based, mouse; settings: 0-10 μM for 30 min
Procedure: as §1
(§2) BMMCs were treated with 1 μM monensin for 12 and 24 h, followed by Annexin V/DRAQ7 staining to measure cell death. MCs were gated into cells having high and low maturity, as assessed by SSC analysis for granularity (A). The right panels depict the quantification of apoptotic (Annexin V^+/DRAQ7^−) and necrotic (Annexin V^+/DRAQ7^+) cell death in the respective populations (n=3). (B) BMMCs (0.5×10^6 cells) were developed from WT (FIG. 4B) or serglycin^−/− (SG^−/−) mice (data not shown) and were treated with monensin 0-10 μM for 24 h, followed by cell death assessment (Annexin V/DRAQ7 staining). […] To further assess the impact of the secretory granules on monensin-induced cell death, it was evaluated whether the absence of serglycin, a granule-restricted proteoglycan, affects the response to monensin. […]

mMCP-6 = test: Translocation of granule protease mMCP-6 into the cytosolic fraction; format: cell-based
[6] = tested on: Bone marrow-derived mast cells (BMMCs); settings: mouse; for Viability % (10 μM): 24 h
mast cells = settings: cited from earlier work
[7] = tested on: human skin mast cells (hskinMC); test: Cell death assessment in human skin mast cells; format: cell-based
Procedure: as §1
(§3) Next, the inventors assessed if monensin is cytotoxic for human mast cells by assessing its effect on immature human mast cell lines (LUVA, HMC-1) and on fully mature skin mast cells (hskinMC).

MCs [8] = test: Intracellular calcium in MCs (Fluo-4/AM); format: cell-based
Procedure: as §1

human blood monocytes = test: Human peripheral blood-derived cells, viability: monocytes; format: cell-based
Procedure: (§4) Mononuclear cells and granulocytes were purified from heparinized human peripheral blood. Cells were stained with antibodies against CD4 (RPA-T4), CD8 (RPA-T8), CD19 (HIB19) and CD14 (M5E2) or CCR3 (5E8) and CD15 (W6D3) for analysis of mononuclear cells and granulocytes, respectively.
as §1
(§5) To extend these findings into the corresponding human leukocyte populations, the inventors assessed the effects of monensin on eosinophils (B), human blood monocytes (C), lymphocytes (D), and neutrophils (E).

peritoneal macrophages = test: Mouse peritoneal lavage cells, viability by flow cytometry: macrophages; format: cell-based; settings: 0-10 μM for 24 h
Procedure: (§6) Mouse peritoneal cells were treated with monensin and stained with labeled antibodies against CD117 (2B8), FcεRI (MAR-1), Siglec-F (E50-2440), CD11b (M1/70), F4/80 (BM8), CD3 (17A2), CD4 (GK1.5), CD8b (eBioH35-17.2) and CD19 (ebuo1D3).
as §1
(§7) To this end, monensin was added to cells recovered by peritoneal lavage of mice, followed by flow cytometry analysis to assess the effects of monensin on the various cell populations of the peritoneum.
(§8) Peritoneal cell populations were recovered by peritoneal lavage of mice. The gating strategy to identify viable cells and to identify macrophages, lymphocytes, MCs and eosinophils within the peritoneal cell population is shown in (A). […] The panels show quantification of viable (Annexin V^−/Via-Probe^−) cells; in the MC (B), lymphocyte (C), macrophage (D) and eosinophil (E) populations (n=3).

[9] = tested on: human fibroblast cells (HFL-1)
peritoneal eosinophils = test: Mouse peritoneal lavage cells, viability by flow cytometry: eosinophils; format: cell-based; settings: 0-10 μM for 24 h
Procedure: as §6, §1, §7, §8

[10] = tested on: mouse peritoneal cell-derived mast cells (PCMCs); test: Annexin V/DRAQ7 cell death assessment in PCMCs; format: cell-based; settings: 24 h incubation
Procedure: as §1
To assess whether monensin also induces cell death of fully mature mast cells, mouse peritoneal cell-derived mast cells (PCMCs) were developed and their sensitivity to monensin was assessed. […] In fact, these mature mast cells were even more sensitive to monensin than were the BMMCs, with significant cell death seen at concentrations down to 10 nM (24 h incubation).

peritoneal lymphocytes = test: Mouse peritoneal lavage cells, viability by flow cytometry: lymphocytes; format: cell-based; settings: 0-10 μM for 24 h
Procedure: as §6, §1, §7, §8

[11] = tested on: immature human mast cell line HMC-1; test: Cell death assessment in HMC-1 cells; format: cell-based; settings: lower potency than for BMMCs and PCMCs
Procedure: as §1, §3

peritoneal MCs = test: Mouse peritoneal lavage cells, viability by flow cytometry: MCs; format: cell-based; settings: 0-10 μM for 24 h
Procedure: as §6, §1, §7, §8

HEK293 cells = test: Cytotoxicity against HEK293 cells (PrestoBlue); format: cell-based, human; settings: 0.01-10 μM for 48 h; much less than on mast cells
[12] = tested on: immature human mast cell line LUVA; test: Cell death assessment in LUVA cells; format: cell-based; settings: lower potency than for BMMCs and PCMCs
Procedure: as §1, §3

human eosinophils = test: Human peripheral blood-derived cells, viability: eosinophils; format: cell-based
Procedure: as §4, §1, §5

BMMCs [13] = test: Cytosolic pH in BMMCs (BCFL-AM); format: cell-based, mouse; settings: 4 and 24 h
Procedure: as §1, §2

human neutrophils = test: Human peripheral blood-derived cells, viability: neutrophils; format: cell-based
Procedure: as §4, §1, §5

[14] = tested on: human primary airway epithelial cells (HSAEC); test: Cytotoxicity against human primary airway epithelial cells (PrestoBlue); format: cell-based; settings: 0.01-10 μM for 48 h; much less than on mast cells
human lymphocytes = test: Human peripheral blood-derived cells, viability: lymphocytes; format: cell-based
Procedure: as §4, §1, §5

MCs [15] = test: Hexosaminidase release from MCs; format: cell-based
MCs [16] = test: Cell death in absence or presence of caspase inhibitor Z-DEVD; format: cell-based; settings: 1 or 10 μM monensin, with or without Z-DEVD
Procedure: MCs were treated with 1 or 10 μM monensin, either in the absence or presence of a caspase inhibitor: Z-DEVD. Flow cytometry was used to distinguish between viable (Annexin V^−/DRAQ7^−), apoptotic (Annexin V^+/DRAQ7^−) and necrotic (Annexin V^+/DRAQ7^+) cells. […] In line with the latter, the extent of cell death in response to monensin was not affected by the caspase inhibitor, Z-DEVD (FIG. 3).

human skin MCs = test: Granule acidity, LysoSensor Blue DND-167 staining of human skin MCs; format: cell-based; settings: 0-10 μM for 30 min
Procedure: as §1, §2

[17] = tested on: mast cells populating the tracheal tissue; test: Histological analysis of tracheal segments (astra blue); parameters: species or system guinea pig; settings: monensin-treated tracheal tissue
Procedure: Double staining of control (D) and monensin-treated tracheal tissue (E, F) was performed with astra blue.

CC(=O)OC[C@H]1O[C@@H]([S-])[C@H](OC(C)=O)[C@@H](OC(C)=O)[C@@H]1OC(C)=O.CCP(CC)CC.[Au+] [Auranofin]
Viability % (TB) (10 μM) [1]: 100% | Caspase 3 & 7 activation (Caspase 3 & 7): + | Caspase-3 & 7 activation (Caspase 3 & 7): caspase-3 & 7 positivity | Viability % (1 μM) ([2]; 1 μM, BMMCs, Presto Blue): 83% | Viability % (10 μM) ([2]; 10 μM, BMMCs, 24 hours, Presto Blue): 1% | Cytotoxicity at 10 μM on HSFib (HFL-1) cells ([3]; 10 μM, 48 h): exhibited cytotoxicity

CO/C1=C\C(C)=C\[C@@H](C)[C@@H](O)[C@@H](C)C/C(C)=C/C=C/[C@H](OC)[C@@H]([C@@H](C)[C@@H](O)[C@H](C)[C@@]2(O)C[C@@H](O)[C@H](C)[C@@H](C(C)C)O2)OC1=O [Bafilomycin A]
Extent of cell death induced by monensin when combined with bafilomycin A ([4]; bafilomycin A 20 nM in combination with monensin, BMMCs): significant reduction | LysoSensor Blue DND-167 staining / granule acidity, BMMCs (BMMCs [5]): profound reduction | Monensin-induced translocation of mMCP-6 to the cytosol in cells treated with bafilomycin A (mMCP-6): abrogated

CCN(CC)CCOc1ccc(C(=C(Cl)c2ccccc2)c2ccccc2)cc1 [Clomiphene]
Viability % (TB) (10 μM) [1]: 22% | Caspase 3 & 7 activation (Caspase 3 & 7): − | Caspase-3 & 7 activation (Caspase 3 & 7): absence of a positive signal | Viability % (1 μM) [6]: 99% | Viability % (10 μM) [6]: 76%

CC[C@]1([C@H]2O[C@H]([C@@H]3O[C@](O)(CO)[C@@H](C)C[C@H]3C)C[C@H]2C)CC[C@@H]([C@@]2(C)CC[C@@]3(C[C@@H](O)[C@H](C)[C@H]([C@H](C)[C@H](OC)[C@H](C)C(=O)O)O3)O2)O1 [Monensin, 4-[2-[5-ethyl-5-[5-[6-hydroxy-6-(hydroxymethyl)-3,5-dimethyl-oxan-2-yl]-3-methyl-oxolan-2-yl]oxolan-2-yl]-9-hydroxy-2,8-dimethyl-1,6-dioxaspiro[4.5]dec7-yl]-3-methoxy-2-methyl-pentanoic acid]
Histamine release on longer incubation (mast cells; 5 hr incubation with mast cells): potent secretagogue | Concentrations able to prevent histamine release from mast cells stimulated by secretagogues (mast cells; secretagogues such as calcium ionophore A23187): 0.6 to 150 µg/mL | Viability % (TB) (10 μM) [1]: 12% | Caspase 3 & 7 activation (Caspase 3 & 7): − | Caspase-3 & 7 activation (Caspase 3 & 7): absence of a positive signal; also recorded: does not cause caspase-3 & 7 activations | Sensitivity of human skin mast cells ([7]; especially after longer incubation time): considerable sensitivity | Type of cell death in human skin mast cells ([7]; sign of necrosis almost negligible): mainly apoptosis | Cytosolic calcium (MCs [8]): did not cause an increase | Viability of human monocytes (human blood monocytes): no reduction | Response of peritoneal macrophages (peritoneal macrophages): resistant | Viability % (1 μM) [6]: 72% | Viability % (10 μM) [6]: 66% | Cytotoxicity at 10 μM on HSFib (HFL-1) cells [9]: exhibited cytotoxicity | Type of cell death in serglycin−/− BMMCs ([4]; 0-10 μM for 24 h, serglycin−/− BMMCs): predominantly Annexin V/DRAQ7 double-positive | Sensitivity of mast cells with high granularity versus low granularity ([4]; 1 μM, 12 and 24 h, SSC gating): markedly more sensitive | Type of cell death in WT BMMCs (Annexin V/DRAQ7) ([4]; WT BMMCs): predominantly Annexin V single positivity; also recorded: predominantly apoptotic cell death | LysoSensor Blue DND-167 staining / granule acidity, BMMCs (BMMCs [5]): marked reduction | Concentrations with substantial cell death of peritoneal eosinophils (down to) (peritoneal eosinophils): ≥ 10 nM | Concentrations with significant cell death in PCMCs (down to) [10]: ≥ 10 nM | Response of peritoneal lymphocytes (peritoneal lymphocytes): resistant | Cytotoxicity to HMC-1 cells [11]: cytotoxic | Concentrations at which peritoneal MCs were extensively depleted (down to) (peritoneal MCs): ≥ 10 nM | Concentration from which a cytotoxic effect was exhibited, HEK293 (HEK293 cells): ≥ 1000 nM | Cytotoxicity to LUVA cells [12]: cytotoxic | Response of human eosinophils (human eosinophils): sensitive | Cytosolic pH (BMMCs [13]): significant drop | Translocation of mMCP-6 into the cytosolic fraction (mMCP-6): profound translocation | Selectivity of cytotoxic effect, mast cells versus HFL-1, HSAEC, HEK-293 [2]: high and selective cytotoxic effect on mast cells | Potency against BMMCs compared with the other drugs ([2]; 0.01-10 μM for 24, 48 or 72 h): markedly more potent than any of the other three drugs | Concentrations showing considerable toxicity to BMMCs (down to) ([2]; 0.01-10 μM for 24, 48 or 72 h, especially after prolonged (72 h) incubation): ≥ 10 nM | Response of human neutrophils (human neutrophils): only marginally affected | Concentration from which a cytotoxic effect was exhibited, HSAEC [14]: ≥ 1000 nM | Viability of human lymphocytes (human lymphocytes): no reduction | Release of hexosaminidase (MCs [15]): did not cause | Extent of cell death in presence of caspase inhibitor Z-DEVD (MCs [16]): not affected | Concentration from which a cytotoxic effect was exhibited, HFL-1 ([3]; 0.01-10 μM for 48 h, much less than on mast cells): ≥ 1000 nM | LysoSensor Blue DND-167 staining, human skin MCs (human skin MCs): marked reduction | Proportion of mast cells having a defined nucleus [17]: profound reduction
